Reference: the kinase profiling compilation of Christmann-Franck et al. (2016)

Experiments:
Experiment in all cases: KINOMEscan competition binding
Conditions in all cases: compound 10.0 µM
[1] = tested on: ABL1 (human), P00519 [M351T]
[2] = tested on: ABL1 (human), P00519 [Q252H]
[3] = tested on: ABL1 (human), P00519 [T315I]
ALK (human) = ALK (human) (UniProt Q9UM73)
BLK (human) = BLK (human) (UniProt P51451)
BMX (human) = BMX (human) (UniProt P51813)
CDC2L2 (human) = CDC2L2 (human) (UniProt Q9UQ88)
CDK16 (human) = CDK16 (human) (UniProt Q00536)
CDK2 (human) = CDK2 (human) (UniProt P24941)
CIT (human) = CIT (human) (UniProt O14578)
Chain of CIT (human) (O14578 whole entry, looked up): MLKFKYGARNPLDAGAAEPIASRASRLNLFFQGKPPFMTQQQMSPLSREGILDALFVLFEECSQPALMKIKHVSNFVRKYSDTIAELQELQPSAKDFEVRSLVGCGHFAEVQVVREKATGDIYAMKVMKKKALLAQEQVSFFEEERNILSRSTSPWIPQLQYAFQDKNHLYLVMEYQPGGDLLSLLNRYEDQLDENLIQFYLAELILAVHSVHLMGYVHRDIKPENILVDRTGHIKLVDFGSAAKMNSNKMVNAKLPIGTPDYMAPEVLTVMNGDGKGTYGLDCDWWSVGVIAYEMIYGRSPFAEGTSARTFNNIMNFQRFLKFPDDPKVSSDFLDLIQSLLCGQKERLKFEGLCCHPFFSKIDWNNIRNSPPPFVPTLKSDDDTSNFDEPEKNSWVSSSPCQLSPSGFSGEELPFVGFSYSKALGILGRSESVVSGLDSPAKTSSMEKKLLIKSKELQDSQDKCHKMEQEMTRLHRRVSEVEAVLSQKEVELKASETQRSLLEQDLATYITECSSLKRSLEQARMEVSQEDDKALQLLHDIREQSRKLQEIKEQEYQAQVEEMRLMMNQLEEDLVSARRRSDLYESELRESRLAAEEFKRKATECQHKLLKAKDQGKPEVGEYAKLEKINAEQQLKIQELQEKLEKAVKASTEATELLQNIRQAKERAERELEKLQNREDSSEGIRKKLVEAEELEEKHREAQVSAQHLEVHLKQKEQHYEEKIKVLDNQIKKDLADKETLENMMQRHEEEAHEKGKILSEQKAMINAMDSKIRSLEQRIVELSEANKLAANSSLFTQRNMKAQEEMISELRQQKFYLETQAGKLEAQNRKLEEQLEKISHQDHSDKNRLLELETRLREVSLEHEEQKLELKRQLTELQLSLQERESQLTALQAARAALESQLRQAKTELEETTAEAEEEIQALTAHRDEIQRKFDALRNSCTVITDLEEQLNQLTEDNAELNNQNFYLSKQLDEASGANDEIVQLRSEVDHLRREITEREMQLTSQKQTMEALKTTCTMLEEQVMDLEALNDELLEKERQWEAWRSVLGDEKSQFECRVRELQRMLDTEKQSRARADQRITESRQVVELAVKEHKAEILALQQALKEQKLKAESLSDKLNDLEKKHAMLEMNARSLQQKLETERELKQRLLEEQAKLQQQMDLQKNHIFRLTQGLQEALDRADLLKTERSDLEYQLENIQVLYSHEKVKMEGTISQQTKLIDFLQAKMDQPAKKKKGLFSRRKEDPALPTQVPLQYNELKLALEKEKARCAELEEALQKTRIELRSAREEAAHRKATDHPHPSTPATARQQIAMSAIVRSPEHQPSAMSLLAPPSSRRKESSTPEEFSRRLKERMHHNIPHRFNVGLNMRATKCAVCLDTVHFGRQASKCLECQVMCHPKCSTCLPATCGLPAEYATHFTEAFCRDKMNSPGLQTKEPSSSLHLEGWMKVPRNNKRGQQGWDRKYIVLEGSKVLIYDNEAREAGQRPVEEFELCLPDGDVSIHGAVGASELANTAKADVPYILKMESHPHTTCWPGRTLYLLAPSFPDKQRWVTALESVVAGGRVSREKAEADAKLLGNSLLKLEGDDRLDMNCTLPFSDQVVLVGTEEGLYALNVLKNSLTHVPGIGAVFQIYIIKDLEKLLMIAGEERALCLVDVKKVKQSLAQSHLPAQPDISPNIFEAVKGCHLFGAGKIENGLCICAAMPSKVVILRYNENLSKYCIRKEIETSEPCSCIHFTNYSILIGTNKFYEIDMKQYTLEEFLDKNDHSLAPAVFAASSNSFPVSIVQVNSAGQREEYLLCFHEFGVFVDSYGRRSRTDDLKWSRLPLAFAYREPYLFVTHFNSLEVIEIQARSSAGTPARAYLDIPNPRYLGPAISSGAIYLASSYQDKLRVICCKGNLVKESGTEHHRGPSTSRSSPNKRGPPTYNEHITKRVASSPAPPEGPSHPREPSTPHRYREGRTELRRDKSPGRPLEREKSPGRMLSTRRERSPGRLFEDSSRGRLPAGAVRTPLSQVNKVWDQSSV

CSF1R (human) = CSF1R (human) (UniProt P07333)
[4] = tested on: EGFR (human), P00533 [747-751 del / S ins]
[5] = tested on: EGFR (human), P00533 [L861Q]
[6] = tested on: EGFR (human), P00533 [P753S; 747-752 del]
EPHA2 (human) = EPHA2 (human) (UniProt P29317)
FER (human) = FER (human) (UniProt P16591)
FES (human) = FES (human) (UniProt P07332)
Chain of FES (human) (P07332 whole entry, looked up): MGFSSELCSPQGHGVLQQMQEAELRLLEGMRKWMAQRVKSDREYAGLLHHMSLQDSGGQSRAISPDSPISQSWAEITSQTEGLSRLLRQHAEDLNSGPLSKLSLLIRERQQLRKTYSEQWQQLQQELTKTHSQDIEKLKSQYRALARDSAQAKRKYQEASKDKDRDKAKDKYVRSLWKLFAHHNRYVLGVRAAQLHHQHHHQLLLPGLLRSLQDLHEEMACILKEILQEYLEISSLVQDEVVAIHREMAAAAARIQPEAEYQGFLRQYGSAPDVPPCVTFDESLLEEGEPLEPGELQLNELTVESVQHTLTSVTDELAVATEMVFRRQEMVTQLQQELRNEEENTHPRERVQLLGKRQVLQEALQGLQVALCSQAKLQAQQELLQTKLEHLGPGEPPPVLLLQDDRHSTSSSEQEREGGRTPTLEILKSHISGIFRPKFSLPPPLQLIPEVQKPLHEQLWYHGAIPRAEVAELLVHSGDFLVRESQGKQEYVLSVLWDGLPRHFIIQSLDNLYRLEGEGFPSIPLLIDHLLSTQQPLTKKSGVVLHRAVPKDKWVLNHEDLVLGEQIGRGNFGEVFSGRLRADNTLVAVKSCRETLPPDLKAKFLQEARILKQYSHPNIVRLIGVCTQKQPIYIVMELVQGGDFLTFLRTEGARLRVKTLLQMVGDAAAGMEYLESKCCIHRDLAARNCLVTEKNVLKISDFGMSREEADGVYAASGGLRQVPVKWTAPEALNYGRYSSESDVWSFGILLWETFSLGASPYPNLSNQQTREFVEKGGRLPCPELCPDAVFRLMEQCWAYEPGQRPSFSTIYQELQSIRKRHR

FGFR3 (human) = FGFR3 (human) (UniProt P22607)
[7] = tested on: FLT3 (human), P36888 [D835Y]
GAK (human) = GAK (human) (UniProt O14976)
INSRR (human) = INSRR (human) (UniProt P14616)
KIT (human) = KIT (human) (UniProt P10721)
Chain of KIT (human) (P10721 whole entry, looked up): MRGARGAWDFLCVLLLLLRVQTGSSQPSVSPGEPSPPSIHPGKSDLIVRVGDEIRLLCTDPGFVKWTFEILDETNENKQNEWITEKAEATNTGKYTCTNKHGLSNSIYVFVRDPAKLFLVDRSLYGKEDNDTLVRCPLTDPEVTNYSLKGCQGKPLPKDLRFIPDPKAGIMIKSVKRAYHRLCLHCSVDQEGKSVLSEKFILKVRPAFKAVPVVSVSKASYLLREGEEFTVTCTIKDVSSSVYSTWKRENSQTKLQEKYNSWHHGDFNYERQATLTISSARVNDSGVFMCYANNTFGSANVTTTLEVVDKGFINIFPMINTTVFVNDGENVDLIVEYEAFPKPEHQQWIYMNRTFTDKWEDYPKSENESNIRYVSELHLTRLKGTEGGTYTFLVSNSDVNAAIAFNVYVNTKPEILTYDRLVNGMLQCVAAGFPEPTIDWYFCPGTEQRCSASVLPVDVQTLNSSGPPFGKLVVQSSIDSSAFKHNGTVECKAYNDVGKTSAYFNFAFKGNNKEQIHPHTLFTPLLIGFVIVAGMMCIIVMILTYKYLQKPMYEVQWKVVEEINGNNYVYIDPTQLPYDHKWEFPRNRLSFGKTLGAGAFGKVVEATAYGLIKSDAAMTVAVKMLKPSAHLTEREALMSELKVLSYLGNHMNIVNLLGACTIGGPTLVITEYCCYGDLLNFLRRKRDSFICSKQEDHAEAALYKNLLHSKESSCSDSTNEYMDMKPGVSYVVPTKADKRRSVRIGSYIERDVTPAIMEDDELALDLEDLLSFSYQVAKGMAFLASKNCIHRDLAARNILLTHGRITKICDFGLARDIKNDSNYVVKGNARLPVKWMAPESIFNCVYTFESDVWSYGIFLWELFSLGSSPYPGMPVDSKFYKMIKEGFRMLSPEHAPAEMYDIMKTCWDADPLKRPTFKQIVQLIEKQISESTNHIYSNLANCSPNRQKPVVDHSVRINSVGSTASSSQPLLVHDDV

[8] = tested on: KIT (human), P10721 [V559D]
Chain of KIT (human), P10721 [V559D] (P10721 whole entry V559D, looked up): as the sequence (P10721 whole entry, looked up) above, with V559D counted along it

LTK (human) = LTK (human) (UniProt P29376)
MAP4K1 (human) = MAP4K1 (human) (UniProt Q92918)
MAP4K3 (human) = MAP4K3 (human) (UniProt Q8IVH8)
MAP4K4 (human) = MAP4K4 (human) (UniProt O95819)
MAPK10 (human) = MAPK10 (human) (UniProt P53779)
MAPK11 (human) = MAPK11 (human) (UniProt Q15759)
MAPK8 (human) = MAPK8 (human) (UniProt P45983)
MAPK9 (human) = MAPK9 (human) (UniProt P45984)
NLK (human) = NLK (human) (UniProt Q9UBE8)
PTK6 (human) = PTK6 (human) (UniProt Q13882)
RAF1 (human) = RAF1 (human) (UniProt P04049)
Chain of RAF1 (human) (P04049 whole entry, looked up): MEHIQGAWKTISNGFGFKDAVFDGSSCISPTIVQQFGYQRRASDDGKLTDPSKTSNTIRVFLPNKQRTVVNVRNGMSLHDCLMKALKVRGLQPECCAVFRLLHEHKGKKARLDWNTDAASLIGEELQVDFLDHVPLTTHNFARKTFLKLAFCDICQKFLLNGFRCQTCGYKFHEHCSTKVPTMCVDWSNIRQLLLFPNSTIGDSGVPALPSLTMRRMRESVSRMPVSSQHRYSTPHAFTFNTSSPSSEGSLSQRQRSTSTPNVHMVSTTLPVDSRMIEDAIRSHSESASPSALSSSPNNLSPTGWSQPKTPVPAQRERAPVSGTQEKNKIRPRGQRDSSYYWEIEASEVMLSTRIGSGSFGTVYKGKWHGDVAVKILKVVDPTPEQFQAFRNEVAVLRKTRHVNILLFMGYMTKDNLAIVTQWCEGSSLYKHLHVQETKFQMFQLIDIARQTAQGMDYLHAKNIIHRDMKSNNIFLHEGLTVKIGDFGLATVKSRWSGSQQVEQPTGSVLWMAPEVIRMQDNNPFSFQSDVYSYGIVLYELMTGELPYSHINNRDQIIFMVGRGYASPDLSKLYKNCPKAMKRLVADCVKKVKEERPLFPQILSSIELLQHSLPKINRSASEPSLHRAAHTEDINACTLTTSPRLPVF

SLK (human) = SLK (human) (UniProt Q9H2G2)
SRC (human) = SRC (human) (UniProt P12931)
STK10 (human) = STK10 (human) (UniProt O94804)
SYK (human) = SYK (human) (UniProt P43405)
TAOK1 (human) = TAOK1 (human) (UniProt Q7L7X3)
TNIK (human) = TNIK (human) (UniProt Q9UKE5)
TTK (human) = TTK (human) (UniProt P33981)

Chain of BLK (human) (P51451 whole entry, looked up): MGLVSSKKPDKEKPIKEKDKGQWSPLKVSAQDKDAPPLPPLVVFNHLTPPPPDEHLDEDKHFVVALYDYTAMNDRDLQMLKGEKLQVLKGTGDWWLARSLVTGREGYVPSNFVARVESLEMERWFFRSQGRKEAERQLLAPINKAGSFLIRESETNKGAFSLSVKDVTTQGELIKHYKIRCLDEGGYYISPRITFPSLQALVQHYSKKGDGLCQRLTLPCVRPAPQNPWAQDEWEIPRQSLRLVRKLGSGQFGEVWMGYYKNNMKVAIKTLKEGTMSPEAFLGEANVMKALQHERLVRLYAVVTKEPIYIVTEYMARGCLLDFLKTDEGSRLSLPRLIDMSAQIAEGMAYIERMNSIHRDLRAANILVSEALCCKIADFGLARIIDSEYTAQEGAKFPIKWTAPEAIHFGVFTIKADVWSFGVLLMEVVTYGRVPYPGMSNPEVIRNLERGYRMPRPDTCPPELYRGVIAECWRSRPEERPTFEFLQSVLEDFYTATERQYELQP

**Q.** Which results are given for CCN1CCN(Cc2ccc(NC(=O)c3ccc(C)c(Oc4ccnc5[nH]ccc45)c3)cc2C(F)(F)F)CC1?
**A.** kinase still bound, per cent of control [1]: 0.35%; kinase still bound, per cent of control [2]: 0.4%; kinase still bound, per cent of control [3]: 0%; kinase still bound, per cent of control (ALK (human)): 0.55%; kinase still bound, per cent of control (BLK (human)): 0.45%; kinase still bound, per cent of control (BMX (human)): 2.4%; residual activity (CDC2L2 (human)): 0.05%; residual activity (CDK16 (human)): 11%; residual activity (CDK2 (human)): 11%; kinase still bound, per cent of control (CIT (human)): 0.1%; kinase still bound, per cent of control (CSF1R (human)): 0%; kinase still bound, per cent of control [4]: 1.1%; kinase still bound, per cent of control [5]: 15%; kinase still bound, per cent of control [6]: 1.2%; kinase still bound, per cent of control (EPHA2 (human)): 3.1%; kinase still bound, per cent of control (FER (human)): 0.5%; kinase still bound, per cent of control (FES (human)): 2.2%; kinase still bound, per cent of control (FGFR3 (human)): 9.4%; kinase still bound, per cent of control [7]: 14%; kinase still bound, per cent of control (GAK (human)): 31%; kinase still bound, per cent of control (INSRR (human)): 23%; kinase still bound, per cent of control (KIT (human)): 0%; kinase still bound, per cent of control [8]: 0%; kinase still bound, per cent of control (LTK (human)): 1.2%; kinase still bound, per cent of control (MAP4K1 (human)): 1.6%; kinase still bound, per cent of control (MAP4K3 (human)): 18%; kinase still bound, per cent of control (MAP4K4 (human)): 0%; kinase still bound, per cent of control (MAPK10 (human)): 12%; kinase still bound, per cent of control (MAPK11 (human)): 0%; kinase still bound, per cent of control (MAPK8 (human)): 0%; kinase still bound, per cent of control (MAPK9 (human)): 0%; kinase still bound, per cent of control (NLK (human)): 14%; kinase still bound, per cent of control (PTK6 (human)): 28%; kinase still bound, per cent of control (RAF1 (human)): 7%; kinase still bound, per cent of control (SLK (human)): 2%; kinase still bound, per cent of control (SRC (human)): 0.2%; kinase still bound, per cent of control (STK10 (human)): 0%; kinase still bound, per cent of control (SYK (human)): 6.2%; kinase still bound, per cent of control (TAOK1 (human)): 3%; kinase still bound, per cent of control (TNIK (human)): 8.2%; kinase still bound, per cent of control (TTK (human)): 24%
